Data as given in patent publication US8591892B2, “FTY720 increases CD74 expression and sensitizes cancer cells to anti-CD74 antibody-mediated cell death” (The Ohio State University, priority 2011, dated 2013).

What was measured:
[1] = tested on: primary tumor cells from MCL patients; assay: Cell viability by annexin-V/PI staining and flow cytometry; assay type: cell-based, human; settings: six MCL patients, 24 hours; FTY720 2.5 μM, immobilized milatuzumab 5 μg/ml
Description: (§1) FIG. 4. FTY720 sensitizes MCL cell lines and primary patient tumor cells to milatuzumab-mediated cytotoxicity. (A) Four MCL cell lines and primary cells from 6 patients were treated with FTY720 and/or milatuzumab plus cross-linking antibodies at the indicated concentrations. (B) Patient characteristics. (C) Individual patient responses. (D) Representative histograms summarizing patient responses. Cell death was determined by annexin V/PI staining and flow cytometry at 24 hours. Data are shown as the percentage of annexin V−/PI− cells (live cells) and are normalized to untreated controls.
Primary tumor cells were isolated from the peripheral blood/lymph nodes of patients with MCL. All patients studied were diagnosed with MCL according to the World Health Organization (WHO) classification of tumors (Swerdlow, 2008, World Health Organization Classification of Tumours of Haematopoetic and Lymphoid Tissues (ed 4th ed.) Lyon, France, International Agency on Research for Cancer). All samples contained at least 85% of CD19^+/CD20^+ B cells detected by flow cytometry. […]
To assess lysosomal volume, FTY720 treated cells were incubated with LYSOTRACKER™ green DND-26. […] Cell viability was measured at 24 hours by dual staining with annexin-V FITC and propidium iodide (PI). A total of 10,000 events were collected and analyzed using WinMDI. […]

four MCL cell lines = assay: Cell viability by annexin-V/PI staining and flow cytometry, four lines together; assay type: cell-based, human; settings: Jeko-1, Z-138 and UPN-1 cell lines, 24 hours
Description: as §1
To assess lysosomal volume, FTY720 treated cells were incubated with LYSOTRACKER™ green DND-26. To assess lysosomal membrane permeability, FTY720 treated cells were incubated with acridine orange (MOLECULAR PROBES; INVITROGEN). For analysis of cell viability, MCL cell lines (0.5×10^6/ml) and primary cells (1×10^6/ml) were treated with FTY720, milatuzumab, and the combination of both. […] Cell viability was measured at 24 hours by dual staining with annexin-V FITC and propidium iodide (PI). A total of 10,000 events were collected and analyzed using WinMDI.
The in vitro survival of four MCL cell lines treated with FTY720, milatuzumab in the presence of a cross-linking antibody, and the combination of FTY720 and milatuzumab was determined at 24 hours by annexin-V/PI staining and flow cytometry. […]

human AML cell lines = assay: Proliferation assays, milatuzumab with/without IFN-γ; assay type: cell-based
Description: CD74 expression in bone marrow biopsy (BMB) specimens from non-M3 AML patients was evaluated by immunohistochemistry and, for 3 human AML cell lines, by flow cytometry, with/without permeabilization and with/without IFN-γ (40 and 200 U/mL). These cell lines were also tested in proliferation assays for responses to milatuzumab, with/without IFN-γ. In 13/14 BMB specimens, there was moderate to strong CD74 expression by leukemic blasts, which was mostly intracellular, usually with a perinuclear distribution (data not shown). […] IFN-γ induced intracellular CD74 in all 3 lines (from 85%-868%) (not shown).

Aspc-1 = assay: Flow cytometry of CD74, HLA-DR, CEACAM5 with directly labeled MAbs, with and without IFN-γ; assay type: cell-based
Description: (§2) Expression of CD74, HLA-DR, and carcinoembryonic antigen (CEACAM5) was determined in untreated cells and cells exposed to 200 U of IFN-γ for 48 h by flow cytometry. Cells were stained with directly labeled MAbs in comparison to a directly labeled human IgG control. Antibodies were labeled using ALEXA FLUOR® 488 (Invitrogen, Carlsbad, Calif.). For determination of cytoplasmic antigen expression, cells were permeabilized prior to staining using the BD CYTOFIX/CYTOPERM™ kit (BD Biosciences, San Jose, Calif.).

CAG = assay: as above; assay type: cell-based
Description: as §2

TU118 = assay: as above; assay type: cell-based
Description: as §2

U118 = assay: as above; assay type: cell-based
Description: as §2

WSU-FSCCL NHL cells = assay: Cytotoxicity of milatuzumab with GAH crosslinking, with and without IFN-γ; assay type: cell-based; settings: in vitro
Description: We examined whether the ability of anti-CD74 MAbs to kill cancer cells can be increased by using IFN-γ as an inducer of antigen expression. Using a panel of diverse cancer cell lines (including NHL, MM, GBM, and pancreatic and colonic carcinomas), we examined IFN-γ-induced changes in surface and cytoplasmic CD74 expression. Sensitivity of the malignant cells to milatuzumab was assessed with and without IFN-γ by cytotoxicity assays.
The cytotoxicity of anti-CD74 antibodies was examined in the presence or absence of IFN-γ (not shown). As previously observed, in vitro cytotoxicity of milatuzumab required crosslinking (Stein, et al., Blood, 104: 3705-11, 2004). Goat anti-human IgG (GAH) was used for crosslinking in these experiments.

[2] = multiple myeloma patients, 1.5 mg/kg twice weekly for 4 weeks; cited from earlier work
[3] = single agents, same dosage and delivery schedule; cited from earlier work

milatuzumab: fully humanized monoclonal antibody specific for CD74
average cell death [1]: 50% | activity as single agents (four MCL cell lines): only modest activity | growth inhibition (human AML cell lines; first responding AML line, with IFN-γ): 44.8% | growth inhibition (human AML cell lines; first responding AML line, without IFN-γ): 23.7% | growth inhibition (human AML cell lines; second responding AML line, with IFN-γ): 30.9% | growth inhibition (human AML cell lines; second responding AML line, without IFN-γ): −3.9% | % change of cell surface expression with IFNγ (Aspc-1; Aspc-1): 121.3% | % change of cytoplasmic expression with IFNγ (Aspc-1; Aspc-1): 1451.5% | Cell surface expression (staining with directly labeled MAb) (Aspc-1; Aspc-1 + IFNγ 200 U, 48 h): 7.3 | Cell surface expression (staining with directly labeled MAb) (Aspc-1; Aspc-1, without IFN-γ): 3.3 | % change of cell surface expression with IFNγ (CAG; CAG): −5.4% | % change of cytoplasmic expression with IFNγ (CAG; CAG): 19.8% | Cell surface expression (staining with directly labeled MAb) (CAG; CAG + IFNγ 200 U, 48 h): 39.2 | Cell surface expression (staining with directly labeled MAb) (CAG; CAG, without IFN-γ): 41.5 | % change of cell surface expression with IFNγ (TU118; TU118): 167.8% | % change of cytoplasmic expression with IFNγ (TU118; TU118): 374.6% | Cell surface expression (staining with directly labeled MAb) (TU118; TU118 + IFNγ 200 U, 48 h): 19.2 | Cell surface expression (staining with directly labeled MAb) (TU118; TU118, without IFN-γ): 7.17 | % change of cell surface expression with IFNγ (U118; U118): 160.9% | % change of cytoplasmic expression with IFNγ (U118; U118): 428.2% | Cell surface expression (staining with directly labeled MAb) (U118; U118 + IFNγ 200 U, 48 h): 18.3 | Cell surface expression (staining with directly labeled MAb) (U118; U118, without IFN-γ): 7.0 | increased killing after IFN-γ exposure (WSU-FSCCL NHL cells): 33% | peak levels [2]: 10 to 20 µg/mL | weight loss or other side effects [3]: did not cause any observed weight loss or other significant side effects
